Assay results as given in ChEMBL document CHEMBL3885861, “Open TG-GATES”.

Species on record: Rattus norvegicus
Test: Open TG-GATES - Regimen: Single
Assay type: toxicity, organism-based, Sprague-Dawley
Set-up: regimen Single, gender Male, age 6 weeks
Settings: in vivo, sc, 0.02 mg/kg, route subcutaneous injection, dose 20 ug/Kg, dose level Low; for APTT / Bas / Eos / Fbg / Hb / Ht / Lym / MCH / MCHC / MCV / Mono / Neu / PT / Plat / RBC / Ret / WBC: tissue Blood; for KIDNEY_L / KIDNEY_R / KIDNEY_TOTAL: tissue Kidney; for LIVER: tissue Liver; for A/G / ALP / ALT / AST / BUN / CRE / Ca / Cl / DBIL / GLC / IP / K / LDH / Na / PL / RALB / TBIL / TC / TG / TP / gamma-GTP: tissue Plasma

Compound `CC(=O)O.N=C(N)NCCC[C@@H](NC(=O)[C@@H]1CCCN1C(=O)[C@@H]1CSSCCC(=O)N[C@@H](Cc2ccc(O)cc2)C(=O)N[C@@H](Cc2ccccc2)C(=O)N[C@@H](CCC(N)=O)C(=O)N[C@@H](CC(N)=O)C(=O)N1)C(=O)NCC(N)=O` [DESMOPRESSIN ACETATE] has a TERMINAL_BW (3 h) of 210.4 g, an APTT (3 h) of 17.8 s and a Bas (3 h) of 0%. The Eos (3 h) was 1%, the Fbg (3 h) was 236 mg/dL and the Hb (3 h) was 12.9 g/dL. For the same compound, the Ht (3 h) was 39.5%, the Lym (3 h) was 71.4% and the MCH (3 h) was 22.1 pg. The MCHC (3 h) was 32.7%, the MCV (3 h) was 67.5 fL and the Mono (3 h) was 8.6%. For the same compound, the Neu (3 h) was 18.6%, the PT (3 h) was 12.3 s and the Plat (3 h) was 120.4 x10_4/uL. The RBC (3 h) was 586 x10_4/ul, the Ret (3 h) was 9.1% and the WBC (3 h) was 90.2 x10_2/uL. It also gave a KIDNEY_L (3 h) of 1 g, a KIDNEY_R (3 h) of 1 g and a KIDNEY_TOTAL (3 h) of 1.9 g. For the same compound, the LIVER (3 h) was 10 g, the A/G (3 h) was 2 and the ALP (3 h) was 1379 IU/L. It also gave an ALT (3 h) of 39.2 IU/L, an AST (3 h) of 68.8 IU/L and a BUN (3 h) of 21.2 mg/dL. The CRE (3 h) was 0.3 mg/dL, the Ca (3 h) was 11.1 mg/dL and the Cl (3 h) was 102.8 meq/L. The DBIL (3 h) was 0.01 mg/dL, the GLC (3 h) was 194.4 mg/dL and the IP (3 h) was 9.9 mg/dL. It also gave a K (3 h) of 4.5 meq/L, an LDH (3 h) of 123.8 IU/L and a Na (3 h) of 135.4 meq/L. It also gave a PL (3 h) of 142 mg/dL, an RALB (3 h) of 3.6 g/dL and a TBIL (3 h) of 0.05 mg/dL. For the same compound, the TC (3 h) was 81.8 mg/dL, the TG (3 h) was 64.4 mg/dL and the TP (3 h) was 5.4 g/dL. The gamma-GTP (3 h) was 1 IU/L, the TERMINAL_BW (6 h) was 202.1 g and the APTT (6 h) was 17.3 s. It also gave a Bas (6 h) of 0%, an Eos (6 h) of 1% and a Fbg (6 h) of 232.8 mg/dL. For the same compound, the Hb (6 h) was 12.9 g/dL, the Ht (6 h) was 39.6% and the Lym (6 h) was 77.8%. It also gave an MCH (6 h) of 21.5 pg, an MCHC (6 h) of 32.6% and an MCV (6 h) of 66.1 fL. It also gave a Mono (6 h) of 8%, a Neu (6 h) of 13.2% and a PT (6 h) of 12.7 s. It also gave a Plat (6 h) of 116.8 x10_4/uL, an RBC (6 h) of 598.6 x10_4/ul and a Ret (6 h) of 9.1%. The WBC (6 h) was 105.6 x10_2/uL, the KIDNEY_L (6 h) was 1 g and the KIDNEY_R (6 h) was 1 g. The KIDNEY_TOTAL (6 h) was 2 g, the LIVER (6 h) was 9.1 g and the A/G (6 h) was 1.9. For the same compound, the ALP (6 h) was 1160 IU/L, the ALT (6 h) was 31.2 IU/L and the AST (6 h) was 60 IU/L. For the same compound, the BUN (6 h) was 25.4 mg/dL, the CRE (6 h) was 0.3 mg/dL and the Ca (6 h) was 10.8 mg/dL. For the same compound, the Cl (6 h) was 103.6 meq/L, the DBIL (6 h) was 0.014 mg/dL and the GLC (6 h) was 199 mg/dL. The IP (6 h) was 9.6 mg/dL, the K (6 h) was 4.8 meq/L and the LDH (6 h) was 109.4 IU/L. It also gave a Na (6 h) of 135 meq/L, a PL (6 h) of 142.8 mg/dL and an RALB (6 h) of 3.5 g/dL. It also gave a TBIL (6 h) of 0.074 mg/dL, a TC (6 h) of 85 mg/dL and a TG (6 h) of 62.4 mg/dL. The TP (6 h) was 5.3 g/dL, the gamma-GTP (6 h) was 1 IU/L and the TERMINAL_BW (9 h) was 202.1 g. It also gave an APTT (9 h) of 16.9 s, a Bas (9 h) of 0% and an Eos (9 h) of 1.4%. It also gave a Fbg (9 h) of 229 mg/dL, a Hb (9 h) of 13 g/dL and a Ht (9 h) of 40.1%. For the same compound, the Lym (9 h) was 72%, the MCH (9 h) was 21.8 pg and the MCHC (9 h) was 32.6%. It also gave an MCV (9 h) of 67.1 fL, a Mono (9 h) of 8.4% and a Neu (9 h) of 18.4%. The PT (9 h) was 12.8 s, the Plat (9 h) was 118 x10_4/uL and the RBC (9 h) was 598.2 x10_4/ul. For the same compound, the Ret (9 h) was 9.3%, the WBC (9 h) was 94.6 x10_2/uL and the KIDNEY_L (9 h) was 1 g. The KIDNEY_R (9 h) was 0.9 g, the KIDNEY_TOTAL (9 h) was 1.9 g and the LIVER (9 h) was 8.7 g. For the same compound, the A/G (9 h) was 2.2, the ALP (9 h) was 1148.8 IU/L and the ALT (9 h) was 32.2 IU/L. It also gave an AST (9 h) of 62.6 IU/L, a BUN (9 h) of 24.4 mg/dL and a CRE (9 h) of 0.3 mg/dL. For the same compound, the Ca (9 h) was 11 mg/dL, the Cl (9 h) was 103.8 meq/L and the DBIL (9 h) was 0.016 mg/dL. The GLC (9 h) was 198.4 mg/dL, the IP (9 h) was 10.6 mg/dL and the K (9 h) was 5.1 meq/L. The LDH (9 h) was 143.8 IU/L, the Na (9 h) was 136.4 meq/L and the PL (9 h) was 136.6 mg/dL. It also gave an RALB (9 h) of 3.6 g/dL, a TBIL (9 h) of 0.056 mg/dL and a TC (9 h) of 78.2 mg/dL. It also gave a TG (9 h) of 47.6 mg/dL, a TP (9 h) of 5.3 g/dL and a gamma-GTP (9 h) of 0.4 IU/L. For the same compound, the TERMINAL_BW (24 h) was 220.6 g, the APTT (24 h) was 16.9 s and the Bas (24 h) was 0%. The Eos (24 h) was 1%, the Fbg (24 h) was 245.2 mg/dL and the Hb (24 h) was 12.8 g/dL. It also gave a Ht (24 h) of 39.6%, a Lym (24 h) of 74% and an MCH (24 h) of 21.3 pg. It also gave an MCHC (24 h) of 32.4%, an MCV (24 h) of 65.9 fL and a Mono (24 h) of 7.8%. It also gave a Neu (24 h) of 17.2%, a PT (24 h) of 12.1 s and a Plat (24 h) of 134.8 x10_4/uL. For the same compound, the RBC (24 h) was 601 x10_4/ul, the Ret (24 h) was 10.2% and the WBC (24 h) was 109.6 x10_2/uL. It also gave a KIDNEY_L (24 h) of 1 g, a KIDNEY_R (24 h) of 1 g and a KIDNEY_TOTAL (24 h) of 1.9 g. The LIVER (24 h) was 10.3 g, the A/G (24 h) was 2 and the ALP (24 h) was 1595.4 IU/L. For the same compound, the ALT (24 h) was 35 IU/L, the AST (24 h) was 63.8 IU/L and the BUN (24 h) was 15 mg/dL. It also gave a CRE (24 h) of 0.4 mg/dL, a Ca (24 h) of 11.3 mg/dL and a Cl (24 h) of 104.8 meq/L. The DBIL (24 h) was 0 mg/dL, the GLC (24 h) was 193.2 mg/dL and the IP (24 h) was 7.8 mg/dL. For the same compound, the K (24 h) was 5.2 meq/L, the LDH (24 h) was 137 IU/L and the Na (24 h) was 137.8 meq/L. For the same compound, the PL (24 h) was 152.8 mg/dL, the RALB (24 h) was 3.7 g/dL and the TBIL (24 h) was 0.022 mg/dL. It also gave a TC (24 h) of 83.8 mg/dL, a TG (24 h) of 98.6 mg/dL and a TP (24 h) of 5.5 g/dL. The gamma-GTP (24 h) was 1.2 IU/L.
